Source: ChEMBL document CHEMBL5518220, “The Discovery of 7-Isopropoxy-2-(1-methyl-2-oxabicyclo[2.1.1]hexan-4-yl)-N-(6-methylpyrazolo[1,5-a]pyrimidin-3-yl)imidazo[1,2-a]pyrimidine-6-carboxamide (BIO-7488), a Potent, Selective, and CNS-Penetrant IRAK4 Inhibitor for the Treatment of Ischemic Stroke” (J Med Chem, 2024)

What was measured:
[1] = Metabolic stability in human liver microsomes assessed as intrinsic clearance; type: ADME, Microsome; settings: read-out: CLH
[2] = Metabolic stability in rat liver microsomes assessed as intrinsic clearance; type: ADME, Microsome; settings: read-out: CLH
MDR1 (P-gp) = assay: Efflux ratio of apparent permeability across basolateral to apical side over apical to basolateral side in MDCK-MDR1 cells at 1 uM incubated for 120 mins by LC-MS/MS analysis; type: ADME, cell-based, Canis lupus familiaris; settings: dog
[3] = Unbound brain-to-plasma concentration ratio in iv dosed rat measured at 4 to 24 hrs by LC-MS/MS analysis; type: ADME, organism-based; settings: brain and plasma, time 4-24 hrs, read-out: K(p,uu,brain)
[4] = Drug metabolism in human liver microsomes assessed as oxidative metabolism at methyl-THF moiety at 10 uM incubated for 60 mins by LC-MS/MS analysis; type: ADME, Microsome; settings: 1 h
[5] = Drug metabolism in male Sprague-Dawley rat liver microsomes assessed as oxidative metabolism at methyl-THF moiety at 10 uM incubated for 60 mins by LC-MS/MS analysis; type: ADME, Microsome; settings: 1 h
[6] = target: T1, Interleukin-1 receptor-associated kinase 4 (Homo sapiens, UniProt Q9NWZ3)
T1 sequence (Q9NWZ3 whole entry): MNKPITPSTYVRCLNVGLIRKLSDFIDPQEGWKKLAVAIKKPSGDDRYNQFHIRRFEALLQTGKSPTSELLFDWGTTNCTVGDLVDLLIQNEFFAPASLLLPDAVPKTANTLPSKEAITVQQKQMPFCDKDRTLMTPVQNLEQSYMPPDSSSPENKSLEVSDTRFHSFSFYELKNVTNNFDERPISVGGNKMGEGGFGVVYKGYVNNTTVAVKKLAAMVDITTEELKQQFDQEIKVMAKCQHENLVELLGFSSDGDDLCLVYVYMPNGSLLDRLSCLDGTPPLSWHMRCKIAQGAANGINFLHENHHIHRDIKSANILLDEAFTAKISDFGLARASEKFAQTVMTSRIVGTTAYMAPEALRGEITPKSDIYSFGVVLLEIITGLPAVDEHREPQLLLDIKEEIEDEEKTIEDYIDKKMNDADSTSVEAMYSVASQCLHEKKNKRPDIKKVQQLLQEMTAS

[7] = Metabolic stability in human hepatocytes assessed as intrinsic clearance; type: ADME, cell-based, Hepatocyte; settings: read-out: CLH
[8] = Clearance in rat at 1 mg/kg, iv by LC-MS/MS analysis; type: ADME, organism-based; settings: in vivo
[9] = Unbound clearance in rat at 1 mg/kg, iv by LC-MS/MS analysis; type: ADME, organism-based; settings: in vivo
Mus musculus [10] = assay: Inhibition of LPS-induced IL-1beta production in po dosed female C57BL/6 mouse assessed as reduction in IL-1beta level in plasma administered via oral gavage for 60 mins followed by LPS stimulation at 0.5 mg/kg, ip measured after 90 mins by ELISA; type: functional, organism-based
Mus musculus [11] = assay: Inhibition of LPS-induced TNF-alpha production in po dosed female C57BL/6 mouse assessed as reduction in TNF-alpha level in plasma administered via oral gavage for 60 mins followed by LPS stimulation at 0.5 mg/kg, ip measured after 90 mins by ELISA; type: functional, organism-based
Mus musculus [12] = assay: Inhibition of LPS-induced IL-6 production in po dosed female C57BL/6 mouse assessed as reduction in IL-6 level in plasma administered via oral gavage for 60 mins followed by LPS stimulation at 0.5 mg/kg, ip measured after 90 mins by ELISA; type: functional, organism-based
[13] = Inhibition of […] induced IL-1beta production in human whole blood preincubated for 1 hr followed by R848 stimulation and measured after 4 hrs by MSD assay; type: functional, tissue-based
[14] = Lipophilicity, logD of compound in n-octanol and aqueous buffer at pH 7.4 by RP-HPLC method; type: physicochemical
[15] = target: T2, Dual specificity mitogen-activated protein kinase kinase 5 (Homo sapiens) (UniProt Q13163); assay: Binding affinity to MEK5 (unknown origin) at 100 to 1000 nM relative to control; settings: dose 100-1000 nM
T2 sequence (whole entry): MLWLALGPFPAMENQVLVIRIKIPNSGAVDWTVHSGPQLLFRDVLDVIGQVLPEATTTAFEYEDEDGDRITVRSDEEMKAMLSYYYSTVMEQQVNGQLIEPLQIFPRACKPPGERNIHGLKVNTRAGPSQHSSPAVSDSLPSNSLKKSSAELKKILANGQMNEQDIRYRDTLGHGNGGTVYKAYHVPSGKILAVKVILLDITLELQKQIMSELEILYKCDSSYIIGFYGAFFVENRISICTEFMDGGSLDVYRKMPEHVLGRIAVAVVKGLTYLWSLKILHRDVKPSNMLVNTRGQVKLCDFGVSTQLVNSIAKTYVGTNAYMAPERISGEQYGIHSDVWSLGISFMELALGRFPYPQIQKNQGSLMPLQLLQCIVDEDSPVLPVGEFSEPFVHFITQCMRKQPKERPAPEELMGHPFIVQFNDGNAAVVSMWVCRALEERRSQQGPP

[16] = AUCinfinity in rat at 1 mg/kg, iv by LC-MS/MS analysis; type: ADME, organism-based; settings: in vivo
[17] = Volume of distribution at steady state in rat at 1 mg/kg, iv by LC-MS/MS analysis; type: ADME, organism-based; settings: in vivo, read-out: Vdss
[18] = Half life in rat at 1 mg/kg, iv by LC-MS/MS analysis; type: ADME, organism-based; settings: in vivo
[19] = Tmax in rat at 1 mg/kg, po by LC-MS/MS analysis; type: ADME, organism-based; settings: in vivo
[20] = Oral bioavailability in rat at 1 mg/kg by LC-MS/MS analysis; type: ADME, organism-based; settings: in vivo
[21] = AUCinfinity in mouse at 1 mg/kg, iv by LC-MS/MS analysis; type: ADME, organism-based; settings: in vivo
[22] = Clearance in mouse at 1 mg/kg, iv by LC-MS/MS analysis; type: ADME, organism-based; settings: in vivo
[23] = Unbound clearance in mouse at 1 mg/kg, iv by LC-MS/MS analysis; type: ADME, organism-based; settings: in vivo
[24] = Volume of distribution at steady state in mouse at 1 mg/kg, iv by LC-MS/MS analysis; type: ADME, organism-based; settings: in vivo, read-out: Vdss
[25] = Half life in mouse at 1 mg/kg, iv by LC-MS/MS analysis; type: ADME, organism-based; settings: in vivo
[26] = Tmax in mouse at 1 mg/kg, po by LC-MS/MS analysis; type: ADME, organism-based; settings: in vivo
[27] = Oral bioavailability in mouse at 1 mg/kg by LC-MS/MS analysis; type: ADME, organism-based; settings: in vivo
[28] = AUCinfinity in cynomolgus monkey at 1 mg/kg, iv by LC-MS/MS analysis; type: ADME, organism-based, Macaca fascicularis; settings: in vivo
[29] = Clearance in cynomolgus monkey at 1 mg/kg, iv by LC-MS/MS analysis; type: ADME, organism-based, Macaca fascicularis; settings: in vivo
[30] = Unbound clearance in cynomolgus monkey at 1 mg/kg, iv by LC-MS/MS analysis; type: ADME, organism-based, Macaca fascicularis; settings: in vivo
[31] = Volume of distribution at steady state in cynomolgus monkey at 1 mg/kg, iv by LC-MS/MS analysis; type: ADME, organism-based, Macaca fascicularis; settings: in vivo, read-out: Vdss
[32] = Half life in cynomolgus monkey at 1 mg/kg, iv by LC-MS/MS analysis; type: ADME, organism-based, Macaca fascicularis; settings: in vivo
[33] = Tmax in cynomolgus monkey at 1 mg/kg, po by LC-MS/MS analysis; type: ADME, organism-based, Macaca fascicularis; settings: in vivo
[34] = Oral bioavailability in cynomolgus monkey at 1 mg/kg by LC-MS/MS analysis; type: ADME, organism-based, Macaca fascicularis; settings: in vivo
[35] = AUCinfinity in dog at 1 mg/kg, iv by LC-MS/MS analysis; type: ADME, organism-based, Canis lupus familiaris; settings: in vivo
[36] = Clearance in dog at 1 mg/kg, iv by LC-MS/MS analysis; type: ADME, organism-based, Canis lupus familiaris; settings: in vivo
[37] = Unbound clearance in dog at 1 mg/kg, iv by LC-MS/MS analysis; type: ADME, organism-based, Canis lupus familiaris; settings: in vivo
[38] = Volume of distribution at steady state in dog at 1 mg/kg, iv by LC-MS/MS analysis; type: ADME, organism-based, Canis lupus familiaris; settings: in vivo, read-out: Vdss
[39] = Half life in dog at 1 mg/kg, iv by LC-MS/MS analysis; type: ADME, organism-based, Canis lupus familiaris; settings: in vivo
[40] = Tmax in dog at 1 mg/kg, po by LC-MS/MS analysis; type: ADME, organism-based, Canis lupus familiaris; settings: in vivo
[41] = Oral bioavailability in dog at 1 mg/kg by LC-MS/MS analysis; type: ADME, organism-based, Canis lupus familiaris; settings: in vivo
[42] = Free drug level in male C57BL/6 mouse plasma at 10 mg/kg, po qd measured on 3 to 7 days; type: ADME, organism-based; settings: in vivo, time 3-7 day

Structure (SMILES): CCOc1cc2nc(C[C@@H]3CCOC3)cn2cc1NC(=O)c1cccc(C(F)F)n1
- CLint scaled [1]: 62 mL/min/kg
- CLint scaled [2]: 171 mL/min/kg
- efflux ratio at 2 h, 1 µM (MDR1 (P-gp)): 1.5
- Kp uu [3]: 0.9
- Drug metabolism [4]: Metabolite_Detected
- Drug metabolism [5]: Metabolite_Detected
- IC50 [6]: 0.9 nM

Structure (SMILES): Cc1cnc2c(NC(=O)c3cn4cc(C56COC(C)(C5)C6)nc4nc3OC(C)C)cnn2c1
- CLint scaled [1]: < 5 mL/min/kg
- CLint scaled [7]: 2.5 mL/min/kg
- clearance [8]: 2.1 mL/min/kg
- CL free [9]: 30 mL/min/kg
- inhibition (Mus musculus [10]): Dose-Dependent Effect
- inhibition (Mus musculus [11]): Dose-Dependent Effect
- inhibition (Mus musculus [12]): Dose-Dependent Effect
- IC50 ([13]; Homo sapiens, Blood): 200 nM
- fIC50 ([13]; time 5 hrs): 13 nM
- logD [14]: 2.9
- Activity [15]: > 80%
- AUC(0-inf) [16]: 6530 ng·h/mL
- Vd [17]: 2.2 L/kg
- half-life [18]: 12 h
- Tmax [19]: 4.7 h
- bioavailability [20]: 91%
- AUC(0-inf) [21]: 9460 ng·h/mL
- clearance [22]: 1.8 mL/min/kg
- CL free [23]: 19 mL/min/kg
- Vd [24]: 0.75 L/kg
- half-life [25]: 5 h
- Tmax [26]: 1 h
- bioavailability [27]: 98%
- AUC(0-inf) [28]: 6440 ng·h/mL
- clearance [29]: 2.7 mL/min/kg
- CL free [30]: 14 mL/min/kg
- Vd [31]: 1.7 L/kg
- half-life [32]: 8.3 h
- Tmax [33]: 2 h
- bioavailability [34]: 95%
- AUC(0-inf) [35]: 3190 ng·h/mL
- clearance [36]: 3.5 mL/min/kg
- CL free [37]: 5.3 mL/min/kg
- Vd [38]: 2.8 L/kg
- half-life [39]: 10 h
- Tmax [40]: 2.6 h
- bioavailability [41]: 96%
- Cp(f) [42]: 10 nM
